Like-named read-outs stand apart in the source and are kept apart here.
Key:
Test in all cases: PDSP off-target radioligand binding assay
M3 = M3 (Homo sapiens, UniProt P20309)
In short: (§1)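 Plates containing receptor, radioligand at roughly its Kd and 10 µM compound are incubated 90 min at room temperature, protected from light. Filtration onto PEI-treated mats stops the reaction; counted radioactivity, corrected by nonspecific binding with 10 µM reference ligand, yields % inhibition from quadruplicates.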

5-HT2A = target: T1, 5-HT2A (Homo sapiens, UniProt P28223)
T1 construct: NIMH PDSP
T1 sequence (P28223 whole entry, species assumed): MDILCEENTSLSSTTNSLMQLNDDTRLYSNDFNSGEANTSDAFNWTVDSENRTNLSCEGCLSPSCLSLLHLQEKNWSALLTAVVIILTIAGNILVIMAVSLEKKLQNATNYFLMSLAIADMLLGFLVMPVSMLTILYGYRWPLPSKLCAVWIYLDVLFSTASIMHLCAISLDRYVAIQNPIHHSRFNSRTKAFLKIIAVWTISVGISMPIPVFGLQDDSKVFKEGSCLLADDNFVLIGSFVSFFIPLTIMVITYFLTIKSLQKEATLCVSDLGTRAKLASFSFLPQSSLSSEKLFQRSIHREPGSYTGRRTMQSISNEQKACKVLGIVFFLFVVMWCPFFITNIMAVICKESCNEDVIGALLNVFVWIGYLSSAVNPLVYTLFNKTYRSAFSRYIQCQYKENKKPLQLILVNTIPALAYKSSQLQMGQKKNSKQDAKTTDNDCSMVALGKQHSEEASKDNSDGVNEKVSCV
In short: as §1

5-HT1D = target: T2, 5-HT1D (Homo sapiens, UniProt P28221)
T2 construct: NIMH PDSP
T2 sequence (P28221 whole entry, species assumed): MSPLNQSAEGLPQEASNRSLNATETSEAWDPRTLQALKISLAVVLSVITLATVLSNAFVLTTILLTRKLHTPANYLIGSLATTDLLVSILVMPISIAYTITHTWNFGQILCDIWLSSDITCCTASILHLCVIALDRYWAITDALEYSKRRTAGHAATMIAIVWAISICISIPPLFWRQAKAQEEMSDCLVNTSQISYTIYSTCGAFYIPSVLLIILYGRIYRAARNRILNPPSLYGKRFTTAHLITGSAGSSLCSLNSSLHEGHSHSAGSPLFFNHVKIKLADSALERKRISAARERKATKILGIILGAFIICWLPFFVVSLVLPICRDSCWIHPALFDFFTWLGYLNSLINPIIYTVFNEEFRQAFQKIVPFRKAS
In short: as §1

Beta2 = target: T3, Beta2 (Homo sapiens, UniProt P07550)
T3 construct: NIMH PDSP
T3 sequence (P07550 whole entry): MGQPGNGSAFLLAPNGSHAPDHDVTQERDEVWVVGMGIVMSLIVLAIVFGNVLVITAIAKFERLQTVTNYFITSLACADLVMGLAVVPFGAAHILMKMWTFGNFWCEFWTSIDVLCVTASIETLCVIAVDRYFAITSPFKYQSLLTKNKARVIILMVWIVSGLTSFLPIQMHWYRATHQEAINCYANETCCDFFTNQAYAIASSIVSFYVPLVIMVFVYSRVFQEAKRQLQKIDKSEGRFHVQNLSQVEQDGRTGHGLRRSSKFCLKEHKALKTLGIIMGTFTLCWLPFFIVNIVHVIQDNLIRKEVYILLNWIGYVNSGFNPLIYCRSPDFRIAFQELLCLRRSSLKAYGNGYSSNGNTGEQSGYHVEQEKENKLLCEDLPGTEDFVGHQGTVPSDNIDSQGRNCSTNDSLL
In short: as §1

Alpha1A = target: T4, Alpha1A (Homo sapiens, UniProt P35348)
T4 construct: NIMH PDSP
T4 sequence (P35348 1-466): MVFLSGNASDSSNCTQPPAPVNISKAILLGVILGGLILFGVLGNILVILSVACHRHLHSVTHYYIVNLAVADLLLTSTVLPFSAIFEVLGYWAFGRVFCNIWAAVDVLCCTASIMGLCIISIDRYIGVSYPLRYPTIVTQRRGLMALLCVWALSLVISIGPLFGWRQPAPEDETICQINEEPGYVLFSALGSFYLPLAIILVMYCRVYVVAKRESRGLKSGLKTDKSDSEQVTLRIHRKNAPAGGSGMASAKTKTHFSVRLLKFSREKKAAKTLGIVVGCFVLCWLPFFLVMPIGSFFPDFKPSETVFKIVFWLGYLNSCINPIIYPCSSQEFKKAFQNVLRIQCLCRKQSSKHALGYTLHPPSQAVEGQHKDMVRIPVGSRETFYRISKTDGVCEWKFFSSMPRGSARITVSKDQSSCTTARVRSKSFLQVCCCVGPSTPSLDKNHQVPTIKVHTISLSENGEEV
In short: as §1

Alpha1D = target: T5, Alpha1D (Homo sapiens, UniProt P25100)
T5 construct: NIMH PDSP
T5 sequence (P25100 1-572): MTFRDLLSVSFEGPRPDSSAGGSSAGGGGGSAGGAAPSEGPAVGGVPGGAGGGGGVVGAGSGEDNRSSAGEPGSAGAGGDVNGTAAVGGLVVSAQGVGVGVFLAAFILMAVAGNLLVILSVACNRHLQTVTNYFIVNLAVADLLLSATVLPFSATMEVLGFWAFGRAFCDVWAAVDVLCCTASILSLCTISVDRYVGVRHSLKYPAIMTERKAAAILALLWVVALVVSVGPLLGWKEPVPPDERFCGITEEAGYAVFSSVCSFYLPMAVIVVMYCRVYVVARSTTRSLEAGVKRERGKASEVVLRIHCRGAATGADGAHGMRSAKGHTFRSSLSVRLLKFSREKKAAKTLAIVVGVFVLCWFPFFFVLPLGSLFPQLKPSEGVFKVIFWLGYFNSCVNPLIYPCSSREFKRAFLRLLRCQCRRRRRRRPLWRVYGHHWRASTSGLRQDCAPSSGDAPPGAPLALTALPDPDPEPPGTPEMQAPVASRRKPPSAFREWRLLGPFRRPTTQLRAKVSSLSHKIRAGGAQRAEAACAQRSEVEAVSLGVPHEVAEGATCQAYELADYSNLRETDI
In short: as §1

5-HT1B = target: T6, 5-HT1B (Homo sapiens, UniProt P28222)
T6 construct: NIMH PDSP
T6 sequence (P28222 whole entry, species assumed): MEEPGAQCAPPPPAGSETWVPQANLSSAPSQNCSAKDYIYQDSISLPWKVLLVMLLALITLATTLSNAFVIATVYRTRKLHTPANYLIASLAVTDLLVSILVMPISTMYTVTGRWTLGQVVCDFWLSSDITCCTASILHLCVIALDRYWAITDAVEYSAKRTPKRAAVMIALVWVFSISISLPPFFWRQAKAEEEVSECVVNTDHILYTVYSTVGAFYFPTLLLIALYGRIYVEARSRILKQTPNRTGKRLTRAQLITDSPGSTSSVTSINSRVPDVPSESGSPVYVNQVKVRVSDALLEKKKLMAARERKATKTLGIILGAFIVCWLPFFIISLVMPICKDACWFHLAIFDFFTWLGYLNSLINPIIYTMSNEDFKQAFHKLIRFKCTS
In short: as §1

DOR = DOR (Homo sapiens, UniProt P41143)
DOR, sequence (P41143 whole entry): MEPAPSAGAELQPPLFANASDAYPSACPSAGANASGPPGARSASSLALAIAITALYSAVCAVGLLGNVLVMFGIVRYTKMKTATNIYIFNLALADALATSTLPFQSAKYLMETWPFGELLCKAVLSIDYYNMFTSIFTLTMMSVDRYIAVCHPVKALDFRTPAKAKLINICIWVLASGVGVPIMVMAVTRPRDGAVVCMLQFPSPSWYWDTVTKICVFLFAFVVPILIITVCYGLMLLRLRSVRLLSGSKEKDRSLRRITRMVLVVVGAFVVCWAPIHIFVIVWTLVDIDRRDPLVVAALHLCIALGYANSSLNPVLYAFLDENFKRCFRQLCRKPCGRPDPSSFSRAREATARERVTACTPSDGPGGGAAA
In short: as §1

SERT = SERT (Homo sapiens, UniProt P31645)
SERT, sequence (P31645 whole entry, species assumed): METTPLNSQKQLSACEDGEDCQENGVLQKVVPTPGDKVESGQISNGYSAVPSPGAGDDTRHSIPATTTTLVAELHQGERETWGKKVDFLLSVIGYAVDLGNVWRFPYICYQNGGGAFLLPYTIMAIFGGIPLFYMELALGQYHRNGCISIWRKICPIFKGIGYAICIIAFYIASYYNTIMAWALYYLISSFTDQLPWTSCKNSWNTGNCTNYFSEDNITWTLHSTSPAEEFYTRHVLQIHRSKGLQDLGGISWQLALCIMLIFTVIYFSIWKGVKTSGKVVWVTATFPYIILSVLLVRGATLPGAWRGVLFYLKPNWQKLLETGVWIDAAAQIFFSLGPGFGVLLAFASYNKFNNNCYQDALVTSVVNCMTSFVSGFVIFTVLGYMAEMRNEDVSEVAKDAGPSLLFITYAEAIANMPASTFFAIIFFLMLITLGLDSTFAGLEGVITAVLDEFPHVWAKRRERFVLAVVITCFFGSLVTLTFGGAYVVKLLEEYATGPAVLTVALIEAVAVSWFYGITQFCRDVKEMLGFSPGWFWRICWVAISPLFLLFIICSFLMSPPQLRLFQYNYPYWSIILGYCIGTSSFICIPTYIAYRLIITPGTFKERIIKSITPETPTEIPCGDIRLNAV
In short: as §1

D1 = target: T7, D1 (Homo sapiens, UniProt P21728)
T7 construct: NIMH PDSP
T7 sequence (P21728 whole entry): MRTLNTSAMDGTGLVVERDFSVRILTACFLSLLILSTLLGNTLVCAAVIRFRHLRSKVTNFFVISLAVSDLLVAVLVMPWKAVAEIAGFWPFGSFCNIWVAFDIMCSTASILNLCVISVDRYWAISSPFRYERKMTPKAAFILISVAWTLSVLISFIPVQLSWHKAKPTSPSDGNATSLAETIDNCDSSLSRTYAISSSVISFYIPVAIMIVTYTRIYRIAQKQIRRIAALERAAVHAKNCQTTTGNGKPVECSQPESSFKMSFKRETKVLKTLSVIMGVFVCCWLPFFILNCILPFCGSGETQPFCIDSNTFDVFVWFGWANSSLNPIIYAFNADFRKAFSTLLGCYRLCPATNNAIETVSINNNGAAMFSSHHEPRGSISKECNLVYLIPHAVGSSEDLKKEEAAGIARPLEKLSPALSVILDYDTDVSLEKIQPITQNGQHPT
In short: as §1

Sigma 2 = conditions: 10 µM
In short: as §1

D3 = target: T8, D3 (Homo sapiens, UniProt P35462)
T8 construct: NIMH PDSP
T8 sequence (P35462 whole entry): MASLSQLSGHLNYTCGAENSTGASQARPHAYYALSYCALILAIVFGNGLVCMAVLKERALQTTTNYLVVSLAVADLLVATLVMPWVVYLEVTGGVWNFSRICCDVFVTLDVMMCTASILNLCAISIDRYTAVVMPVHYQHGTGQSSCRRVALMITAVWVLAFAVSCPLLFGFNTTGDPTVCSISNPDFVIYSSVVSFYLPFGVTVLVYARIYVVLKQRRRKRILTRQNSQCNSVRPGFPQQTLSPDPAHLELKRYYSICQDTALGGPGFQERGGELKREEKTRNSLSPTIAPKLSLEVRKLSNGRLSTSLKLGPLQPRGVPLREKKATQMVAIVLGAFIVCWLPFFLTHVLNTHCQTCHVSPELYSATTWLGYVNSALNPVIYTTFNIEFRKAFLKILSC
In short: as §1

H2 = H2 (Homo sapiens, UniProt P25021)
H2, sequence (P25021 whole entry): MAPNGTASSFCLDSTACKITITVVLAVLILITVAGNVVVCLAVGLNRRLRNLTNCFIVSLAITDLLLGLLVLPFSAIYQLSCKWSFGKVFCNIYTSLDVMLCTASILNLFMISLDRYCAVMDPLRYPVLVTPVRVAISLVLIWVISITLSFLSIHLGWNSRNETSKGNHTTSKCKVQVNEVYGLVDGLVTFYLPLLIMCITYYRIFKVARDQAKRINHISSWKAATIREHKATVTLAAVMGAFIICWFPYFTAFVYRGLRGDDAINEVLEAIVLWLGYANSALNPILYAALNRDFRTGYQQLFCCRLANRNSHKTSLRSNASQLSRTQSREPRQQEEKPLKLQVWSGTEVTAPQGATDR
In short: as §1

[1] = quadruplicate, read-out: Mean±SD % inhibition
[2] = replicate 1, read-out: % Inhibition 1
[3] = replicate 2, read-out: % Inhibition 2
[4] = replicate 3, read-out: % Inhibition 3
[5] = replicate 4, read-out: % Inhibition 4

M3, sequence (P20309 whole entry): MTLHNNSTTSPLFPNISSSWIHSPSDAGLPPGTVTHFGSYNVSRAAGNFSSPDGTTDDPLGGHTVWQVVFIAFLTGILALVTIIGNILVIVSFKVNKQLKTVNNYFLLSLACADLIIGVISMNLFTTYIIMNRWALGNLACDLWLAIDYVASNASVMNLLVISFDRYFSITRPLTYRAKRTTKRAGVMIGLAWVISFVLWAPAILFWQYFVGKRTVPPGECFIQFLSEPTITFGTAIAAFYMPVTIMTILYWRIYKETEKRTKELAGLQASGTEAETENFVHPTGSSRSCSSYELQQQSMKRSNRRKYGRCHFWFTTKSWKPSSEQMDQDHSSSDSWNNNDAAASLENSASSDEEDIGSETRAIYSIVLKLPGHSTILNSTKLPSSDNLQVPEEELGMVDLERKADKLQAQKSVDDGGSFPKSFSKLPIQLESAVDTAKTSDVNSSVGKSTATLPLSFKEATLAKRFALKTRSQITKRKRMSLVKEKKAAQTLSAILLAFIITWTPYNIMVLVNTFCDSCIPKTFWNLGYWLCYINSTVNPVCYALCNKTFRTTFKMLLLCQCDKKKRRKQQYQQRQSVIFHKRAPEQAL

Which results are given for COc1ccnc(N2CCC3(CCCN(Cc4cn(C)c5ccccc45)C3=O)CC2)n1 [CW24]?
inhibition at 10 µM (M3; [1]): -9.56 ± 5.94%; inhibition at 10 µM (M3; [2]): -5.69%; inhibition at 10 µM (M3; [3]): -3.65%; inhibition at 10 µM (M3; [4]): -12.4%; inhibition at 10 µM (M3; [5]): -16.5%; inhibition at 10 µM (5-HT2A; [1]): 12.3 ± 15.4%; inhibition at 10 µM (5-HT2A; [2]): 25.7%; inhibition at 10 µM (5-HT2A; [3]): 20.1%; inhibition at 10 µM (5-HT2A; [4]): 12.8%; inhibition at 10 µM (5-HT2A; [5]): -9.45%; inhibition at 10 µM (5-HT1D; [1]): 23.5 ± 9.4%; inhibition at 10 µM (5-HT1D; [2]): 32.1%; inhibition at 10 µM (5-HT1D; [3]): 20%; inhibition at 10 µM (5-HT1D; [4]): 11.9%; inhibition at 10 µM (5-HT1D; [5]): 30.2%; inhibition at 10 µM (Beta2; [1]): -10.5 ± 5.4%; inhibition at 10 µM (Beta2; [2]): -12.2%; inhibition at 10 µM (Beta2; [3]): -5.09%; inhibition at 10 µM (Beta2; [4]): -7.41%; inhibition at 10 µM (Beta2; [5]): -17.3%; inhibition at 10 µM (Alpha1A; [1]): -7.99 ± 16.7%; inhibition at 10 µM (Alpha1A; [2]): 17%; inhibition at 10 µM (Alpha1A; [3]): -16.2%; inhibition at 10 µM (Alpha1A; [4]): -17.6%; inhibition at 10 µM (Alpha1A; [5]): -15.1%; inhibition at 10 µM (Alpha1D; [1]): -13.7 ± 16.7%; inhibition at 10 µM (Alpha1D; [2]): 6.91%; inhibition at 10 µM (Alpha1D; [3]): -32.8%; inhibition at 10 µM (Alpha1D; [4]): -9.43%; inhibition at 10 µM (Alpha1D; [5]): -19.4%; inhibition at 10 µM (5-HT1B; [1]): 13.4 ± 6.1%; inhibition at 10 µM (5-HT1B; [2]): 19%; inhibition at 10 µM (5-HT1B; [3]): 18%; inhibition at 10 µM (5-HT1B; [4]): 6.23%; inhibition at 10 µM (5-HT1B; [5]): 10.4%; inhibition at 10 µM (DOR; [1]): 13.9 ± 19.1%; inhibition at 10 µM (DOR; [2]): 41%; inhibition at 10 µM (DOR; [3]): 8.06%; inhibition at 10 µM (DOR; [4]): 10.6%; inhibition at 10 µM (DOR; [5]): -3.98%; inhibition at 10 µM (SERT; [1]): 10.8 ± 11.9%; inhibition at 10 µM (SERT; [2]): 10.6%; inhibition at 10 µM (SERT; [3]): -3.59%; inhibition at 10 µM (SERT; [4]): 10.6%; inhibition at 10 µM (SERT; [5]): 25.6%; inhibition at 10 µM (D1; [1]): 17.9 ± 12.8%; inhibition at 10 µM (D1; [2]): 22.7%; inhibition at 10 µM (D1; [3]): -0.84%; inhibition at 10 µM (D1; [4]): 21.9%; inhibition at 10 µM (D1; [5]): 28%; Mean±SD % inhibition (Sigma 2; quadruplicate): 27.22 ±10.59%; % Inhibition 1 (Sigma 2; replicate 1): 42.39%; % Inhibition 2 (Sigma 2; replicate 2): 19.45%; % Inhibition 3 (Sigma 2; replicate 3): 26.56%; % Inhibition 4 (Sigma 2; replicate 4): 20.46%; inhibition at 10 µM (D3; [1]): -4.9 ± 5.5%; inhibition at 10 µM (D3; [2]): 3.09%; inhibition at 10 µM (D3; [3]): -9.41%; inhibition at 10 µM (D3; [4]): -6.79%; inhibition at 10 µM (D3; [5]): -6.5%; inhibition at 10 µM (H2; [1]): 24.2 ± 1.43%; inhibition at 10 µM (H2; [2]): 25.4%; inhibition at 10 µM (H2; [3]): 24.4%; inhibition at 10 µM (H2; [4]): 24.8%; inhibition at 10 µM (H2; [5]): 22.1%
